The target in series [1] is ROCK1 (Homo sapiens (Human), UniProt Q13464). Kind of series: Kinase assay ROCK1. It counts as biochemical. Particulars: HCl salt. How it is done: (§1) Inhibition of various kinases was assayed.
For series [2], the target named is PKCh (Homo sapiens (Human), UniProt P24723). Kind of series: Kinase assay PKCh. It counts as biochemical. Conditions: HCl salt. How it is done: as §1
The test system of series [3] is NFkB. Nature of the series: NFkB assay. Type of series: cell-based. Conditions: HCl salt. How it is done:
as §1

Series [4] has as its target JAK3 (Homo sapiens (Human), UniProt P52333). Nature of the series: Kinase assay JAK3. It counts as biochemical. Conditions: HCl salt. As to the method:
as §1

In series [5] the target is IKKb (Homo sapiens (Human), UniProt O14920). Kind of series: Kinase assay IKKb. It counts as biochemical. Particulars: HCl salt. How it is done:
as §1

For series [6], the target named is JAK1 (Homo sapiens (Human), UniProt P23458). Kind of series: Kinase assay JAK1. Type of series: biochemical. Particulars: HCl salt. As to the method:
as §1

Series [7] has as its system PTM. Nature of the series: PTM assay. Type of series: cell-based. Particulars: HCl salt. How it is done: as §1
Series [8] can be described thus: in vitro. Type of series: cell-based.
For series [9], the target named is AKT1 (Homo sapiens (Human), UniProt P31749). Nature of the series: Kinase assay AKT1. Type of series: biochemical. Conditions: HCl salt. As to the method:
as §1

The target of series [10] is PKCe (Homo sapiens (Human), UniProt Q02156). Nature of the series: Kinase assay PKCe. It counts as biochemical. Particulars: HCl salt. How it is done: as §1
Series [11] deals with TYK2 (Homo sapiens (Human), UniProt P29597). Nature of the series: Kinase assay TYK2. It counts as biochemical. Particulars: HCl salt. How it is done:
as §1

The target of series [12] is ROCK2 (Homo sapiens (Human), UniProt O75116). Kind of series: Kinase assay ROCK2. It counts as biochemical. Conditions: HCl salt. How it is done:
as §1

Series [13] concerns the target PKA (Homo sapiens, UniProt P17612). Kind of series: Kinase assay PKA. Type of series: biochemical. Conditions: HCl salt. How it is done:
as §1

Series [14] deals with Myeloperoxidase (MPO) activity. Nature of the series: Myeloperoxidase (MPO) activity after intravitreal LPS in mice. Conditions: dosed at 0 and 6 hours. It counts as in vivo, C57Bl6 male mice. How it is done: Adult C57Bl6 male mice were injected with 2 ng of lipopolysaccharide (LPS) intravitreally. The mice were then dosed with vehicle, compounds or control treatments (0.07% w/w, 0.02% w/w or 0.007% w/w) at times 0 and 6 hours post-injection. Aqueous humor (AH) and vitreous humor (VH) was collected 24 hours after injection of LPS and assayed for MPO activity by ELISA. Data is a compilation of two separate experiments. Statistical analysis was carried out on GraphPad prism using a multiple comparisons 1-way ANOVA with uncorrected Dunn's test. Results are shown in FIG. 5 (aqueous humor) and FIG. 6 (vitreous humor). In FIG. 5 and FIG. 6, Dex refers to dexamethasone, Compound A refers to (S)-3-amino-2-(4-(hydroxymethyl)phenyl)-N-(isoquinolin-6-yl)propanamide, * refers to p<0.05, and ** refers to p<0.005. MPO levels correspond to levels of neutrophil infiltration. In the context of non-infectious inflammatory events, neutrophils cause robust levels of damage to tissues.

Series [15] deals with PKCd (Homo sapiens (Human), UniProt Q05655). Nature of the series: Kinase assay PKCd. It counts as biochemical. Conditions: HCl salt. As to the method: as §1
The subject of series [16] is HTM. Nature of the series: HTM assay. It counts as cell-based. Conditions: HCl salt. As to the method:
as §1

In series [17] the target is JAK2 (Homo sapiens (Human), UniProt O60674). Nature of the series: Kinase assay JAK2. Particulars: HCl salt. Type of series: biochemical.

Structures are written as SMILES. Counter-ions that a name gives are not always drawn.

PKCe, sequence (Q02156 whole entry, species assumed): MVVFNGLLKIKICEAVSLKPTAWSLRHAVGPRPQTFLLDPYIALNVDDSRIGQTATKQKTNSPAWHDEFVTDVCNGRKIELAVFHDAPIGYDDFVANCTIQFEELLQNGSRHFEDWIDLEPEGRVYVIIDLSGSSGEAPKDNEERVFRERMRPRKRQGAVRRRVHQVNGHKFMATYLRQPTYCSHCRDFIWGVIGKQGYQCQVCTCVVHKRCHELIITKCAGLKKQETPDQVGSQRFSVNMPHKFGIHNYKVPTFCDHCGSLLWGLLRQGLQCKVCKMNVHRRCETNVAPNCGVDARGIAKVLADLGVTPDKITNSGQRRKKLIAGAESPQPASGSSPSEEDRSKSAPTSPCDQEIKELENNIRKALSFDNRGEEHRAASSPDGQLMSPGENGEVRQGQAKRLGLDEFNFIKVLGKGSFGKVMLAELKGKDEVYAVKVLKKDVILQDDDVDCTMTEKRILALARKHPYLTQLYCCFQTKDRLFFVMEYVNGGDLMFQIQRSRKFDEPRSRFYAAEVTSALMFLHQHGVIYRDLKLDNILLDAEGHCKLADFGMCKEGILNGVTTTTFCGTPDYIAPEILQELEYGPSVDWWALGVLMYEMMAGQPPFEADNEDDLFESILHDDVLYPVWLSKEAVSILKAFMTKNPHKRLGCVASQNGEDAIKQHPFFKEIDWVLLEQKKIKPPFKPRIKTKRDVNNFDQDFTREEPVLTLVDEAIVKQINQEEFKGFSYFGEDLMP
TYK2, sequence (P29597 whole entry, species assumed): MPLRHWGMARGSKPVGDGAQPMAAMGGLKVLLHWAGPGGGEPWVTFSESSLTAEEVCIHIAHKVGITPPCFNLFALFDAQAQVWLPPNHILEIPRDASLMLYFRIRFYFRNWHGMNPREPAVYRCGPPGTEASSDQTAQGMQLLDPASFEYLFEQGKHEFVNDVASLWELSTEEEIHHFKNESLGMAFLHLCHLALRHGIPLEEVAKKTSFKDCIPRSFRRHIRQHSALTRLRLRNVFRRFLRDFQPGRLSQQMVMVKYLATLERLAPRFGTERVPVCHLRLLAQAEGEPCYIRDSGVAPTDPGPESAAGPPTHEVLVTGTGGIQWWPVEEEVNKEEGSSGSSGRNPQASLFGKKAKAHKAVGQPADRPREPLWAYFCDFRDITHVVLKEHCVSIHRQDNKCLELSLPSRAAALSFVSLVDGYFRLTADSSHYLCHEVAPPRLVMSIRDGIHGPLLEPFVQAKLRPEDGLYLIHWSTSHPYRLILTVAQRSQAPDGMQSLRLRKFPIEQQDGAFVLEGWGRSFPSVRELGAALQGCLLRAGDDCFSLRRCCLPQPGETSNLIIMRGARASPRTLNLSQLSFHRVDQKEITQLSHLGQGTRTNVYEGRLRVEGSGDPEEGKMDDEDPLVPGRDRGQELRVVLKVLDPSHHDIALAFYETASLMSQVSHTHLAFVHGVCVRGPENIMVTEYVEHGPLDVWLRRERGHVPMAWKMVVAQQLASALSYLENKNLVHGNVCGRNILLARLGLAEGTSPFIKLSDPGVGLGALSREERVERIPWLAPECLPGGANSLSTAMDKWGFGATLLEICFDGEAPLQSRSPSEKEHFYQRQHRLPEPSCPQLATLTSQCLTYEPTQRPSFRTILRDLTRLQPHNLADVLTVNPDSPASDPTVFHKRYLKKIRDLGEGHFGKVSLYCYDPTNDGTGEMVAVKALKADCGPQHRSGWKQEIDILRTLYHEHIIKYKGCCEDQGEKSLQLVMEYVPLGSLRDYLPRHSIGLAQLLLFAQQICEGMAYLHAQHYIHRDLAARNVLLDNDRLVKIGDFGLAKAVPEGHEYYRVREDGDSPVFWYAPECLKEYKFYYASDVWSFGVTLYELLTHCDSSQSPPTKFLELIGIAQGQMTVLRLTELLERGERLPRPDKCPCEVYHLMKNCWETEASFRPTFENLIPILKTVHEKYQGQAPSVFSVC
PKCd, sequence (Q05655 whole entry, species assumed): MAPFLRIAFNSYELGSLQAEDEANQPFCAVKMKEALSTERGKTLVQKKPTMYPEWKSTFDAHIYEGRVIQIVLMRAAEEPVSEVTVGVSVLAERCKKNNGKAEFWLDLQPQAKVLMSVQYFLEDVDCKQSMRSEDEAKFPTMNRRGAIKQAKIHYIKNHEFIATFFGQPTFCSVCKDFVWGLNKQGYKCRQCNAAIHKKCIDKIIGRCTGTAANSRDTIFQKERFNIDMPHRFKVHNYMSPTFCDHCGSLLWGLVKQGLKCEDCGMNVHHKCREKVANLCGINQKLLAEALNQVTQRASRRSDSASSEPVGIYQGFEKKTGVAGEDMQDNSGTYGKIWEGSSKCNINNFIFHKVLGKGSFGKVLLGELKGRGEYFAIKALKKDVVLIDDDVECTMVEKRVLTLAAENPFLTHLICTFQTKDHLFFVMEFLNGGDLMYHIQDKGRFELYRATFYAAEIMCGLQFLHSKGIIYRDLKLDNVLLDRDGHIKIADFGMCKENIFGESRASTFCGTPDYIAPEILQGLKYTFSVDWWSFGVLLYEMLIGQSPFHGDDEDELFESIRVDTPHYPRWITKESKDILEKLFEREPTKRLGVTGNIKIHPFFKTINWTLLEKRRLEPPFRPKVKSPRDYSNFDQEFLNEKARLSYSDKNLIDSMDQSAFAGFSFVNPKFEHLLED
JAK3, sequence (P52333 whole entry, species assumed): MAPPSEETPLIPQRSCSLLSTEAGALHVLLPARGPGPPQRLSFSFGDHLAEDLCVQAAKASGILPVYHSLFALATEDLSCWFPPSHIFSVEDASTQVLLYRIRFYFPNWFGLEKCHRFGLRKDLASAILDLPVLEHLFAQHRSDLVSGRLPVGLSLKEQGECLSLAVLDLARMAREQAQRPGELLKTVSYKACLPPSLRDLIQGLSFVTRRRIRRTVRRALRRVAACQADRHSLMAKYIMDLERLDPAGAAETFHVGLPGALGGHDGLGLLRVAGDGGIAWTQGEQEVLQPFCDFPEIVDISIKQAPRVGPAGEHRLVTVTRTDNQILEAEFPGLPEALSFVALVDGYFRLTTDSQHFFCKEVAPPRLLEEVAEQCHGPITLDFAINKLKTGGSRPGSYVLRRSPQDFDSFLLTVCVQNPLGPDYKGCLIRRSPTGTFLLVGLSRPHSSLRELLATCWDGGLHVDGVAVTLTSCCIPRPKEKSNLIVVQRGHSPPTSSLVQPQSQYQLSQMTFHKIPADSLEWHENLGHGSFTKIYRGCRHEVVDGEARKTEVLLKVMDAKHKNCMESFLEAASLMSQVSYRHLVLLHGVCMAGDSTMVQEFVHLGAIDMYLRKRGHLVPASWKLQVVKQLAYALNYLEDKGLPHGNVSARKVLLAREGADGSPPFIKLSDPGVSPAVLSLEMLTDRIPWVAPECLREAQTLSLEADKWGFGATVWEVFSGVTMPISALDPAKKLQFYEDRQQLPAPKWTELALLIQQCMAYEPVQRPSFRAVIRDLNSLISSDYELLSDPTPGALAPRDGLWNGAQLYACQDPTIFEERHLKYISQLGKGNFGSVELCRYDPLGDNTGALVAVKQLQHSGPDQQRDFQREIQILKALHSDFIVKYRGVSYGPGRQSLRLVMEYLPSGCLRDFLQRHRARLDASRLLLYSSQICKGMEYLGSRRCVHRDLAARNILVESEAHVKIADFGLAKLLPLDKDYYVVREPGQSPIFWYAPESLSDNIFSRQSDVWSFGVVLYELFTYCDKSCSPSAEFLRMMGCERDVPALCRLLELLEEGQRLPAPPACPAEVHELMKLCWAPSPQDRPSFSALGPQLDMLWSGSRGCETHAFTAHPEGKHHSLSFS
ROCK1, sequence (Q13464 whole entry, species assumed): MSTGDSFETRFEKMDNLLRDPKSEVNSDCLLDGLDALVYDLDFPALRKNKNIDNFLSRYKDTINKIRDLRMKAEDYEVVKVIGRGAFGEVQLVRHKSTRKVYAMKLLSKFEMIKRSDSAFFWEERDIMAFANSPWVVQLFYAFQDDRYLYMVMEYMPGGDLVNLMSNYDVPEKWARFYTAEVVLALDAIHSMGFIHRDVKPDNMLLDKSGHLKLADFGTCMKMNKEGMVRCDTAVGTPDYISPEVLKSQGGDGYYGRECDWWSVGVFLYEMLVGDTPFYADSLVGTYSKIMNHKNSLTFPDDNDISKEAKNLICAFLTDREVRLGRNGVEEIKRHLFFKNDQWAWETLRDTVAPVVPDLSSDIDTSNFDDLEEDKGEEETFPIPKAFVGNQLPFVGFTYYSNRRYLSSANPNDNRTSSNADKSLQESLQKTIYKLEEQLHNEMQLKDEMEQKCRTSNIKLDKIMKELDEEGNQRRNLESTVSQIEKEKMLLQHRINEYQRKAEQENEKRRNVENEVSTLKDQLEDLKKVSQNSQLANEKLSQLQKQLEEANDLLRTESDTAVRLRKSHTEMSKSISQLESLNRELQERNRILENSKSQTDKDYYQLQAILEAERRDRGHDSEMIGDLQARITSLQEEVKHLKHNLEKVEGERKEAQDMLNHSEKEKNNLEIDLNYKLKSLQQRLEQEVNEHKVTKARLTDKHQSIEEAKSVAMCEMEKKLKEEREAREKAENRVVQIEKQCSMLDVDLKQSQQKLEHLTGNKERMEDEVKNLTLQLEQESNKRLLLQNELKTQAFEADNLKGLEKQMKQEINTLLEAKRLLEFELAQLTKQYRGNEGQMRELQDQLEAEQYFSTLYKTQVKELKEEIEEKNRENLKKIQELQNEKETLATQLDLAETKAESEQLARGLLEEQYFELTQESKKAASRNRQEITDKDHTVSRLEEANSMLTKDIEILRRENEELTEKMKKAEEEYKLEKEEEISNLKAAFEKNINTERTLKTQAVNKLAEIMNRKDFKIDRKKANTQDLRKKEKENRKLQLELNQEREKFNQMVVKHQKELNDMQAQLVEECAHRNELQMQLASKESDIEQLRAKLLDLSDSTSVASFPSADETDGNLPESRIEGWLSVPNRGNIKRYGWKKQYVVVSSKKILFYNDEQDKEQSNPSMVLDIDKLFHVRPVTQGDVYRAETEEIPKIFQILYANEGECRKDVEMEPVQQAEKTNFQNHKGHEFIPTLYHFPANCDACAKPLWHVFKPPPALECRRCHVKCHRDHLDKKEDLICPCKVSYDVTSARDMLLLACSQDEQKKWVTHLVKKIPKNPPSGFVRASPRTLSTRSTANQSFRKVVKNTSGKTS

The term IC50 denotes the concentration that inhibits the measured activity by half. In the case of `CC1(C)O[C@@H]2C[C@H]3[C@@H]4CCC5=CC(=O)C=C[C@]5(C)[C@@]4(F)[C@@H](O)C[C@]3(C)[C@]2(C(=O)COC(=O)CCC(=O)OCc2ccc([C@@H](CN)C(=O)Nc3ccc4cnccc4c3)cc2)O1` [Example 33], the half-maximal inhibitory concentration (IC50) in series [1] was 0.021 µM; in series [2], 0.145 µM; in [3] it was 0.103 µM; in [4] it was 30.1 µM; in [5], 40.1 µM; in series [6], 50 µM. Moreover, the IC50 turned out to be 0.075 µM in series [7]; 55.2 µM in series [8]; 1.24 µM in series [9]; 1.57 µM in series [10]; 50 µM in series [11]; 0.014 µM in series [12]. Also, the IC50 in series [13] came out at 0.081 µM; in series [15] it was 0.142 µM; in series [16], 0.004 µM; in series [17], 42.4 µM. The “effect on myeloperoxidase activity in aqueous humor” value in [14] (aqueous humor 24 hours, FIG. 5) was “inhibiting effect”. Moreover, in [14] (vitreous humor 24 hours, FIG. 6), the “effect on myeloperoxidase activity in vitreous humor” value is listed as “inhibiting effect”.
For the compound `C[C@@H]1C[C@H]2[C@@H]3CCC4=CC(=O)C=C[C@]4(C)[C@@]3(F)[C@@H](O)C[C@]2(C)[C@@]1(O)C(=O)COC(=O)CCC(=O)OCc1ccc([C@@H](CN)C(=O)Nc2ccc3cnccc3c2)cc1` [Example 25], the IC50 in series [1] turned out to be 0.025 µM; in series [2] it was 0.173 µM; in [3] it was 0.039 µM; in [4], 21.4 µM; in [5], 38.5 µM; in series [6], 50 µM. Further, the IC50 came out at 0.295 µM in series [7]; 100 µM in series [8]; 0.955 µM in [9]; 1.58 µM in series [10]; 50 µM in series [11]; 0.017 µM in series [12]. Also, the 50% inhibitory concentration (IC50) in series [13] stood at 0.138 µM; in series [15] it was 0.225 µM; in series [16] it was 0.0045 µM; in series [17] it was 40.9 µM.
For the compound `C[C@@H]1C[C@H]2[C@@H]3CCC4=CC(=O)C=C[C@]4(C)[C@@]3(F)[C@@H](O)C[C@]2(C)[C@@]1(O)C(=O)COC(=O)c1ccc(C(=O)OCc2ccc([C@@H](CN)C(=O)Nc3ccc4cnccc4c3)cc2)cc1` [Example 66, 4-((S)-3-amino-1-(isoquinolin-6-ylamino)-1-oxopropan-2-yl)benzyl (2-((8S,9R,10S,11S,13S,14S,16R,17R)-9-fluoro-11,17-dihydroxy-10,13,16-trimethyl-3-oxo-6,7,8,9,10,11,12,13,14,15,16,17-dodecahydro-3H-cyclopenta[a]phenanthren-17-yl)-2-oxoethyl) terephthalate dihydrochloride], the IC50 in series [1] stood at 0.036 µM; in series [2], 0.282 µM; in series [3] it was 0.055 µM; in [4] it was 43.2 µM; in series [5] it was 50 µM; in series [6] it was 50 µM. The IC50 in series [7] was determined as 0.358 µM; in [8] it was 100 µM; in series [9], 1.36 µM; in series [10], 3.61 µM; in [11], 50 µM; in series [12], 0.026 µM. The IC50 worked out at 0.117 µM in [13], 0.357 µM in series [15], 0.015 µM in [16] and 36.2 µM in [17].

Values taken from patent US11059789B2, “Isoquinoline-steroid conjugates and uses thereof” (priority 2018, dated 2021).
